The results in this text go back to PMC11420952, “A Chemical Approach to Assess the Impact of Post-translational Modification on MHC Peptide Binding and Effector Cell Engagement” (ACS Chemical Biology, 2024).

Where no end group is shown, it is not given here.

This assay concerns the target T1, H-2K^b (Mus musculus, UniProt P01901).
T1 construct: endogenous in cells; host or cells: RMA-S cells (TAP-deficient)
T1 sequence (P01901 22-369): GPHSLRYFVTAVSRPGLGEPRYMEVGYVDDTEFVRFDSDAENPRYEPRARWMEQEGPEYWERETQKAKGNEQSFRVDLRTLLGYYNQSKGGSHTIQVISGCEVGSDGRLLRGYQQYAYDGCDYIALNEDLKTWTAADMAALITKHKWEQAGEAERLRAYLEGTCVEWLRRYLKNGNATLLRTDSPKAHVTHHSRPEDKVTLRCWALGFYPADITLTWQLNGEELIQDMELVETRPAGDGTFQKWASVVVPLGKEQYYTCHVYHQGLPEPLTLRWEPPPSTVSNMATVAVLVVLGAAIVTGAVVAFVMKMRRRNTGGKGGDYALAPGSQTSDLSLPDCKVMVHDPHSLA
T1 sequence (P01887 21-119 partner): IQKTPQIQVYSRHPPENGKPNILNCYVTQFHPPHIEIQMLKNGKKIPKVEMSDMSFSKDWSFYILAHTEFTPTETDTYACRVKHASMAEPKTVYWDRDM
The assay can be described thus: cell-based. The conditions noted are these: sarsWT concentration scan; 1 h 26 °C then 6 h 37 °C; APC anti-mouse H-2K^b antibody, flow cytometry; Figure S2, mean ± SD n = 3; read-out: EC50 of pMHC stabilization on RMA-S cells. For orientation: In flow cytometry, cells or beads pass a laser one at a time.

Consider ESIVRFPNI [sarsWT], for which the EC50 amounted to 1700 nM.

The EC50 is the midpoint of the concentration-response curve.
